Values of other authors in US12186420B2, “Compositions and methods of use for treatment or improvement of the condition and appearance of skin” (Quthero, Inc., priority 2020, dated 2025).

System: keratinocyte
Settings: in the presence of reactive oxygen species

For “QHREDGS [angiopoietin-1 derived peptide]”, the keratinocyte death is given as “reduce keratinocyte death”.
